Test results reported in patent US20260000686A1, “CANNABIDIOL COMPOSITIONS FOR THE TREATMENT OF INFLAMMATION” (RevRx, LLC, priority 2019, published 2026).

Test system: patient (joint, muscle, and arthritic aches and pains)
Test: Case studies: patient-reported pain relief with topical Cryogel and with previously tried treatments
Type: in vivo, human
[1] = Case #8: diabetic, peripheral neuropathy pain in feet
[2] = Case #2: chronic knee pain and muscle soreness
[3] = Case #7: chronic lower back pain, history of RA
[4] = Case #19: bilateral inflammation of the knees post exercise/running
[5] = Case #21: inflammation of the right knee

`CC(C)C[C@H](CN)CC(=O)O` [LYRICA®] was tested, and the “relief from previously tried treatment (patient-reported)” value (shortened to “relief from previously tried treatment”) [1] was “limit pain relief”.

`COc1ccc2cc([C@H](C)C(=O)O)ccc2c1` [Naproxen] was tested, and the “relief from previously tried treatment” value [2] was “mild pain relief”, the “relief from previously tried treatment” value [3] was “limit pain relief” and the “relief from previously tried treatment” value (Case #13: quadricep tear or strain, right leg muscle pain) was “limited relief”.

`COc1ccc2c3c1O[C@H]1C(=O)CC[C@@]4(O)[C@@H](C2)N(C)CC[C@]314.Cl` [OxyContin®] showed a pain score (Case #1: RA, spinal fusion C3-C4, immediately post-op while taking prescription pain management medication, 1 no-pain, 10 most pain) of 10.

For `Cc1ccc(-c2cc(C(F)(F)F)nn2-c2ccc(S(N)(=O)=O)cc2)cc1` [Celebrex], the “relief from previously tried treatment” value [4] was “Limited Relief”.

`CC(C)Cc1ccc(C(C)C(=O)O)cc1` (stereo not shown) [Ibuprofen] was tested, and the “relief from previously tried treatment” value [2] was “mild pain relief”, the “relief from previously tried treatment” value (Case #4: chronic knee pain and muscle soreness) was “minimal relief” and the “relief from previously tried treatment” value [3] was “limit pain relief”. For the same compound, the “relief from previously tried treatment” value [1] was “limit pain relief”, the “relief from previously tried treatment” value (Case #9: quad pain associated with exercise) was “no relief” and the “relief from previously tried treatment” value (Case #10: Tennis Elbow of the right elbow) was “No relief”. The “relief from previously tried treatment” value (Case #11: upper left trapezius muscle pain) was “No relief”, the “relief from previously tried treatment” value (Case #14: right calf muscle pain) was “limited relief” and the “relief from previously tried treatment” value (Case #15: ankle swelling and soreness) was “limited relief”. The “relief from previously tried treatment” value (Case #16: labrum tear post-surgical repair, pain and soreness) was “limited relief”, the “relief from previously tried treatment” value (Case #17: sciatica nerve pain, upper right hip area) was “limited relief” and the “relief from previously tried treatment” value (Case #18: burning, stinging pain and inflammation in upper right elbow) was “limited relief”. The “relief from previously tried treatment” value [4] was “limited relief” and the “relief from previously tried treatment” value [5] was “Limited Relief”.

In the case of `Clc1ccc2nsnc2c1NC1=NCCN1` [Tizanidine], the “relief from previously tried treatment” value [3] is reported as “limit pain relief”.

With `COc1cccc(C2(O)CCCCC2CN(C)C)c1` (stereo not shown) [Tramadol] the “relief from previously tried treatment” value [3] was “limit pain relief”.

With `COc1ccc2cc([C@H](C)C(=O)[O-])ccc2c1.[Na+]` [ALEVER] the “relief from previously tried treatment” value (Case #5: sore/stiff neck) was “limited relief”.

In the case of `CC(=O)Nc1ccc(O)cc1` [Tylenol], the “relief from previously tried treatment” value [4] is reported as “Limited relief” and the “relief from previously tried treatment” value [5] is reported as “No relief”.
